Laboratory results reported in US5153179A, “Medicament with improved penetration of the tissue membrane” (Max-Planck-Gesellschaft zur Foerderung der Wissenschaft e.V., priority 1983, dated 1992).
Where “and” joins values, the source holds several entries; their conditions need not be identical. Equal values may be shown once.

Assay: Blood-brain barrier penetration by the method of Oldendorf (radioactively marked active material, A. carotis injection, brain radioactivity after 15 seconds)
Settings: for percentage proportion of active material which has passed the blood-brain barrier, with C5: with addition of glycerol 1-pentyl ether; for percentage proportion of active material which has passed the blood-brain barrier, with C5 / percentage proportion of active material which has passed the blood-brain barrier, with C3: about 0.3 Osmol/l; for percentage proportion of active material which has passed the blood-brain barrier, with C5 / percentage proportion of active material which has passed the blood-brain barrier, without / percentage proportion of active material which has passed the blood-brain barrier, with C3: A. carotis, 15 seconds, + dissolved in inger albumin; for percentage proportion of active material which has passed the blood-brain barrier, without: without addition of a compound of the general formula; for percentage proportion of active material which has passed the blood-brain barrier, with C3: with addition of glycerol 1-propyl ether
Description: The effectiveness of the medicament according to the invention was tested according to the method of Oldendorf (Brain-Res., 24, 372-376 (1970)). […] In the case of the medicament according to the invention, the administration took place into the A. carotis. 15 seconds later, the experimental animal was decapitated, the brain removed and the radioactivity bound therein determined. […] The numerical values give the percentage proportion of active material which has passed the blood-brain barrier. As comparative substance, there was employed an isotonic buffer solution. The compound of the general formula was present in iso-osmolar concentration, which corresponds to about 0.3 Osmol/ 1. in the solution administered.
In the case of the experiments according to the method of Oldendorf, the active materials were used in amounts of between 10 and 100 μmol. There was thereby obtained no dependency of the penetration percentage of the active material concentration, i.e. that with increasing amount of active material, the percentage passing the blood-brain barrier remained about the same. In the case of methotrexate as active material, the penetration was also investigated in the case of higher concentrations.
The penetration achieved also depends upon the amount of glycerol derivative of the general formula used. Referring to the results given in Table 1, e.g. with endoxan and the C3 additive, there was achieved a penetration of scarcely 20%, whereas with an equal amount of the C5 additive the penetration lay above 50%. However, if one increases the amount of the C3 derivative 2.5 fold, then the percentage penetrating also increases to about 50%.

Row | percentage proportion of active material which has passed the blood-brain barrier, with C3 | proportion of active material advancing to the place of action at higher concentrations (higher concentrations, up to above 10 mMole) | Compound | percentage proportion of active material which has passed the blood-brain barrier, with C5 | percentage proportion of active material which has passed the blood-brain barrier, without | percentage penetrating with increased amount of the C3 derivative (amount of the C3 derivative increased 2.5 fold) | percentage proportion of active material passing the barrier at higher concentrations (up to above 10 mMole) | penetration improvement (FIG. 2, M.W. above 600)
1 |  |  | O=c1[nH]cc(F)c(=O)[nH]1 [5-fluorouracil] | 13.0 ± 0.1% | 3.7 ± 1.0% |  |  | 
2 | 16.4 ± 4.1% |  | CCCCCCCCCCCCCCCCCCOCC(COP(=O)([O-])OCC[N+](C)(C)C)OC (centres unmarked) [ET 18-O-CH3] |  | 4.5 ± 0.8% |  |  | 
3 | 5.7 ± 1.0% | a linear increase | CN(Cc1cnc2nc(N)nc(N)c2n1)c1ccc(C(=O)N[C@@H](CCC(=O)O)C(=O)O)cc1 [methotrexate] | 26.2 ± 5.8% | 4.7 ± 0.6% |  | practically the same percentage proportion of active material passing the barrier | 
4 |  |  | O=C1c2c(O)ccc(O)c2C(=O)c2c(NCCNCCO)ccc(NCCNCCO)c21 [mitoxandrone] | 25.1 ± 2.0% | 1.8 ± 0.1% |  |  | 
5 | 4.2 ± 0.6% |  | CC[C@]1(O)C[C@@H]2CN(CCc3c([nH]c4ccccc34)[C@@](C(=O)OC)(c3cc4c(cc3OC)N(C)[C@H]3[C@@](O)(C(=O)OC)[C@H](OC(C)=O)[C@]5(CC)C=CCN6CC[C@]43[C@@H]65)C2)C1 [vinblastine] | 44.3 ± 6.7% | 5.4 ± 1.7% |  |  | 
6 |  |  | bleomycin | 5.7 ± 1.8% | 4.9 ± 1.4% |  |  | relatively small

Row | Compound | percentage proportion of active material which has passed the blood-brain barrier, with C3 | proportion of active material advancing to the place of action at higher concentrations (higher concentrations, up to above 10 mMole) | percentage proportion of active material which has passed the blood-brain barrier, with C5 | percentage proportion of active material which has passed the blood-brain barrier, without | percentage penetrating with increased amount of the C3 derivative (amount of the C3 derivative increased 2.5 fold) | percentage proportion of active material passing the barrier at higher concentrations (up to above 10 mMole) | penetration improvement (FIG. 2, M.W. above 600)
7 | COc1cccc2c1C(=O)c1c(O)c3c(c(O)c1C2=O)C[C@@](O)(C(C)=O)C[C@@H]3O[C@H]1C[C@H](N)[C@H](O)[C@H](C)O1 [daunomycin] | 24.1 ± 3.3% |  | 76.8 ± 7.0% | 10.8 ± 2.7% |  |  | 
8 | O=P1(N(CCCl)CCCl)NCCCO1 (centres unmarked) [endoxan] | 18.9 ± 0.3% and ~20% |  |  | 11.4 ± 0.4% | about 50% |  | 
